According to patent publication US20250163074A1, “CDK Inhibitors And Their Use As Pharmaceuticals” (Prelude Therapeutics Incorporated, priority 2020, published 2025):
Like-named read-outs stand apart in the source and are kept apart here.

Columns and labels:
[1] = tested on: MCF7 adenocarcinoma cell line; test: Cell proliferation studies in MCF7 cells (ATP-Lite); format: cell-based; settings: 10 days incubation, cell viability by ATP-Lite luminescence, read-out: PROLIFERATION_CTG_MCF7 IC50
Protocol: Cell Proliferation Studies in MCF7 Cells
Cell proliferation studies were conducted in MCF7 adenocarcinoma cell line. Cells were maintained in DMEM (Corning, Catalog #: 10-013-CV) supplemented with 10% v/v FBS (Gibco, Catalog #: 26140-079), 1% v/v Penicillin Streptomycin (Gibco, Catalog #15140-122) Cells were seeded in 384-well plates at a density of 100 or 200 cells/well. Compounds dissolved in DMSO were plated in quadruplicate using a digital dispenser (D300E, Tecan) and tested on a 9-point 3-fold serial dilution. Cells were incubated for 10 days in a 37° C. active humidified incubator at 5% CO2. A media exchange and second compound addition were performed on day 5. Cell viability was measured using the ATP-Lite 1-Step Luminescence reagent (Perkin Elmer, Catalog #: 6016731) as per manufacturer's instructions. Luminescence signal was measured with a multimode plate reader (Envision 2105, Perkin Elmer). Raw data files were imported to Dotmatics Screening Ultra for IC50 analysis. Luminescence values were normalized to both background and DMSO controls to obtain a percentage of viable cells relative to DMSO vehicle control.

CDK4/Cyclin D1 = CDK4/Cyclin D1 (Homo sapiens (Human), UniProt P11802); test: CDK4/CyclinD1 enzymatic activity assay (TR-FRET); format: biochemical; settings: CDK4/CyclinD1 1 nM, ATP 2 mM, read-out: CDK4_D1 IC50
CDK4/Cyclin D1, sequence (P11802 whole entry): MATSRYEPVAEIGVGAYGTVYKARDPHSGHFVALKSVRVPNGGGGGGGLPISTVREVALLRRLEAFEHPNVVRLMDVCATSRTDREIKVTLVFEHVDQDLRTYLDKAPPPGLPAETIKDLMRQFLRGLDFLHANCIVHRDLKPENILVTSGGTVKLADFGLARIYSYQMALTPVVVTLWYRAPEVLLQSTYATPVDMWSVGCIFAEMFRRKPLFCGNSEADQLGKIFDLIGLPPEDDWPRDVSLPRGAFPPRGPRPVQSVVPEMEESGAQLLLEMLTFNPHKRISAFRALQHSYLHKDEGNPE
CDK4/Cyclin D1, sequence (P24385 whole entry partner): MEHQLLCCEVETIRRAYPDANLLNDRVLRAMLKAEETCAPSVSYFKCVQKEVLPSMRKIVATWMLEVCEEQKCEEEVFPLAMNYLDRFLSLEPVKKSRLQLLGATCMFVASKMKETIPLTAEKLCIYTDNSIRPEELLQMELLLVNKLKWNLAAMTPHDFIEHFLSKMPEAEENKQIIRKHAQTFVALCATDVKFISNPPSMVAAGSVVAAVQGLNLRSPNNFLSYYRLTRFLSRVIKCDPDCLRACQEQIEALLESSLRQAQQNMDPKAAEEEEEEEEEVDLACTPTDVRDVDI
Protocol: CDK4/CyclinD1 Enzymatic Activity Assay
(§1) The inhibitory activity of compounds was evaluated in vitro using TR-FRET assay with white 384-well low volume microplate (Greiner Bio-One). CDK4/Cyclin D1 catalyzed phosphorylation of peptide in the presence and absence of compounds was measured. IC50 determination. Recombinant protein complex CDK4/Cyclin D1, expressed from insect cell, was purchased from ProQinase. Testing compounds were dissolved in DMSO at 0.1 mM and tested in 9-dose IC50 mode. The reaction mixture was prepared by mixing CDK4/CyclinD1 (1 nM final), ULight-4E-BP1 (100 nM final, Perkinelmer, TRF0128-D), and ATP (2 mM final) in assay buffer (20 mM of HEPES pH 7.4, 1 mM of EGTA, 0.05% BSA, 0.005% Tween 20, and 1 mM TCEP). The compound of interest in DMSO was added to each well in 3-fold serial dilution by dispenser (TECAN D300E). After 20 minutes preincubation at room temperature, MgCl2 (10 mM final) was added to initiate the reaction. Following a 60 minutes incubation at 37° C., the reaction was stopped by addition of 2 μL of quenching buffer consisting of Lance detection buffer (Perkinelmer CR97-100C), 2 nM LANCE Ultra Europium-anti-P-4E-BP1 (Perkinelmer, TRF0216-D), 10 mM EDTA, and incubate at room temperature for additional 60 minutes in dark. The reaction signal was measured by Envision multimode plate reader (PerkinElmer, 2102-0010). IC50 values were determined by fitting the data to the standard 4 parameters with Hill Slope using GraphPad Prism software.

CDK6/Cyclin D1 = CDK6/Cyclin D1 (Homo sapiens (Human), UniProt Q00534); test: CDK6/CyclinD1 enzymatic activity assay (TR-FRET); format: biochemical; settings: CDK6/Cyclin D1 1 nM, ATP 250 μM, read-out: CDK6_D1 IC50
CDK6/Cyclin D1, sequence (Q00534 whole entry): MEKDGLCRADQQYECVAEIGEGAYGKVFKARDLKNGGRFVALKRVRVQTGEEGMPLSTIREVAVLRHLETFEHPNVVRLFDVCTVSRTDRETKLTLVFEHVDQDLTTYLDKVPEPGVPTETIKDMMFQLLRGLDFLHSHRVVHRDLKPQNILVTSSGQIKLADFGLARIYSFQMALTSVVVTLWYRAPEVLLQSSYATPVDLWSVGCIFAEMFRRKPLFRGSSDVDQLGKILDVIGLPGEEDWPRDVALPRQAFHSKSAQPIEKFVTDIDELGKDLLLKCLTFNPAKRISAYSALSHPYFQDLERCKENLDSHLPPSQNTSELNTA
CDK6/Cyclin D1, sequence (P24385 whole entry partner): as the sequence (P24385 whole entry partner) above
Protocol: CDK6/CyclinD1 Enzymatic Activity Assay
as §1, with “CDK6/Cyclin” for “CDK4/Cyclin”, “measured and used in” for “measured.”, “CDK6/Cyclin D1” for “CDK4/CyclinD1”, “(250 μM” for “(2 mM”, “temperature, 0.1 μL” for “temperature,”

| IC50 ([1]; Homo sapiens, 240 h) [nM] | IC50 (CDK4/Cyclin D1) [nM] | IC50 (CDK6/Cyclin D1) [nM] | IC50 [1] [nM] | Structure (SMILES) |
| --- | --- | --- | --- | --- |
| 20 to 200 | ≤ 20 | ≤ 20 |  | Cc1c(-c2nc(Nc3ccc(N4CCC5(CCN(C)C5)C4)cn3)ncc2F)sc2c1C(=O)N(C)CC21CC1 (stereo not drawn) [Example 37, 2′-(5-Fluoro-2-((5-(7-methyl-2,7-diazaspiro[4.4]nonan-2-yl)pyridin-2-yl)amino)pyrimidin-4-yl)-3′,5′-dimethyl-5′,6′-dihydro-4′H-spiro[cyclopropane-1,7′-thieno[3,2-c]pyridin]-4′-one] |
| ≤ 20 | ≤ 20 | ≤ 20 |  | CN1CCC(c2ccc(Nc3nc(-c4cc5c(s4)C4(CC4)CN(C)C5=O)ncc3C(F)(F)F)nc2)CC1 [Example 40, 5-Methyl-2-[4-[[5-(1-methylpiperidin-4-yl)pyridin-2-yl]amino]-5-(trifluoromethyl)pyrimidin-2-yl]spiro[6H-thieno[3,2-c]pyridine-7,1′-cyclopropane]-4-one] |
| 20 to 200 | ≤ 20 | ≤ 20 |  | Cc1cnc(Nc2ccc(N3CCC4(CC3)CN(C)C4)cn2)nc1-c1cc2c(s1)C1(CC1)CN(C)C2=O [Example 43, 5-methyl-2-[5-Methyl-2-[[5-(2-methyl-2,7-diazaspiro[3.5]nonan-7-yl)pyridin-2-yl]amino]pyrimidin-4-yl]spiro[6H-thieno[3,2-c]pyridine-7,1′-cyclopropane]-4-one] |
| ≤ 20 | ≤ 20 | ≤ 20 |  | CCN1CC2(C1)CN(c1ccc(Nc3ncc(Cl)c(-c4cc5c(s4)C4(CC4)CN(C)C5=O)n3)nc1)C2 [Example 45, 2-[5-Chloro-2-[[5-(6-ethyl-2,6-diazaspiro[3.3]heptan-2-yl)pyridin-2-yl]amino]pyrimidin-4-yl]-5-methylspiro[6H-thieno[3,2-c]pyridine-7,1′-cyclopropane]-4-one] |
| 20 to 200 | ≤ 20 | ≤ 20 |  | CCN1CC2(C1)CN(c1ccc(Nc3ncc(F)c(-c4sc5c(c4C)C(=O)N(C)CC54CCC4)n3)nc1)C2 [Example 52, 2′-(2-((5-(6-Ethyl-2,6-diazaspiro[3.3]heptan-2-yl)pyridin-2-yl)amino)-5-fluoropyrimidin-4-yl)-3′,5′-dimethyl-5′,6′-dihydro-4′H-spiro[cyclobutane-1,7′-thieno[3,2-c]pyridin]-4′-one] |
| 20 to 200 | ≤ 20 | 20 to 200 |  | CN1CC2(CCC2)c2sc(-c3nc(Nc4ccc(N5CCN6CCC5CC6)cn4)ncc3F)cc2C1=O [Example 53, 2′-(2-((5-(1,4-Diazabicyclo[3.2.2]nonan-4-yl)pyridin-2-yl)amino)-5-fluoropyrimidin-4-yl)-5′-methyl-5′,6′-dihydro-4′H-spiro[cyclobutane-1,7′-thieno[3,2-c]pyridin]-4′-one] |
| 20 to 200 | ≤ 20 | ≤ 20 |  | Cc1c(-c2nc(Nc3ccc(N4CC5(CCN(C)C5)C4)cn3)ncc2F)sc2c1C(=O)N(C)CC21CCC1 [Example 54, 2′-(5-Fluoro-2-((5-(6-methyl-2,6-diazaspiro[3.4]octan-2-yl)pyridin-2-yl)amino)pyrimidin-4-yl)-3′,5′-dimethyl-5′,6′-dihydro-4′H-spiro[cyclobutane-1,7′-thieno[3,2-c]pyridin]-4′-one] |
|  | ≤ 20 | ≤ 20 | 20 to 200 | Cc1c(-c2nc(Nc3ccc(N4C[C@H]5CN(C)C[C@H]5C4)cn3)ncc2F)sc2c1C(=O)N(C)CC21CCC1 [Example 57, 2′-(5-Fluoro-2-((5-((3aR,6aS)-5-methylhexahydropyrrolo[3,4-c]pyrrol-2(1H)-yl)pyridin-2-yl)amino)pyrimidin-4-yl)-3′,5′-dimethyl-5′6′-dihydro-4′H-spiro[cyclobutane-1,7′-thieno[3,2-c]pyridin]-4′-one] |
| 20 to 200 | ≤ 20 | ≤ 20 |  | Cc1c(-c2nc(Nc3ccc(C4CCN(C)CC4)cn3)ncc2Cl)sc2c1C(=O)N(C)CC21CCC1 [Example 60, 2-[5-Chloro-2-[[5-(1-methyl-piperidin-4-yl)pyridin-2-yl]amino]pyrimidin-4-yl]-3,5-dimethylspiro[6H-thieno[3,2-c]pyridine-7,1′-cyclobutane]-4-one] |
|  | ≤ 20 | ≤ 20 | ≤ 20 | CN1CC2(C1)CN(c1ccc(Nc3ncc(F)c(-c4cc5c(s4)C4(CCCC4)CN(C)C5=O)n3)nc1)C2 [Example 61, 2′-(5-Fluoro-2-((5-(6-(methyl-d3)-2,6-diazaspiro[3.3]heptan-2-yl)pyridin-2-yl)amino)pyrimidin-4-yl)-5,-(methyl-d3)-5′,6′-dihydro-4′H-spiro[cyclopentane-1,7′-thieno[3,2-c]pyridin]-4′-one] |
| 20 to 200 | ≤ 20 | 20 to 200 |  | CN1CC2(CCCC2)c2sc(-c3nc(Nc4ccc(N5CCOCC5)cn4)ncc3F)cc2C1=O [Example 62, 2′-(5-Fluoro-2-((5-morpholino-pyridin-2-yl)amino)pyrimidin-4-yl)-5′-methyl-5′,6′-dihydro-4′H-spiro[cyclopentane-1,7′-thieno[3,2-c]pyridin]-4′-one] |
| 20 to 200 | ≤ 20 | ≤ 20 |  | [2H]C([2H])([2H])N1C(=O)c2c(sc(-c3nc(Nc4ccc(C5CCN(C)CC5)cn4)ncc3F)c2C)C12CC2 [Example 70, 2′-[5-Fluoro-2-[[5-(1-methylpiperidin-4-yl)pyridin-2-yl]amino]pyrimidin-4-yl]-3′-methyl-5′-(trideuteriomethyl)spiro[cyclopropane-1,6′-thieno[2,3-c]pyrrole]-4′-one] |
| ≤ 20 | ≤ 20 | ≤ 20 |  | Cc1c(-c2nc(Nc3ccc(C4CCN(C)CC4)cn3)ncc2F)sc2c1C(=O)NC21CC1 [Example 73, 2-[5-Fluoro-2-[[5-(1-methylpiperidin-4-yl)pyridin-2-yl]amino]pyrimidin-4-yl]-3-methylspiro[5H-thieno[2,3-c]pyrrole-6,1′-cyclopropane]-4-one] |

| Structure (SMILES) | IC50 ([1]; Homo sapiens, 240 h) [nM] | IC50 (CDK4/Cyclin D1) [nM] | IC50 (CDK6/Cyclin D1) [nM] | IC50 [1] [nM] |
| --- | --- | --- | --- | --- |
| CN1CC2(CCC2)c2sc(-c3nc(Nc4ccc(N5CC6CC(C5)N6C)cn4)ncc3F)cc2C1=O [Example 46, 2′-(5-Fluoro-2-((5-(6-methyl-3,6-diazabicyclo[3.1.1]heptan-3-yl)pyridin-2-yl)amino)pyrimidin-4-yl)-5′-methyl-5′,6′-dihydro-4′H-spiro[cyclobutane-1,7′-thieno[3,2-c]pyridin]-4′-one] | 20 to 200 | ≤ 20 | 20 to 200 |  |
| CN1CCC(c2ccc(Nc3nc(-c4cc5c(s4)C4(CCC4)CN(C)C5=O)ncc3C(F)(F)F)nc2)CC1 [Example 58] |  | ≤ 20 | ≤ 20 | ≤ 20 |
